Data: patent US20040235882A1, “Amino-substituted imidazopyridines for the treatment of gastrointestial diseases” (priority 2001, published 2004)

System: pentagastrin-stimulated acid secretion of the perfused rat stomach
Test: Secretion-inhibiting action on the perfused rat stomach (pentagastrin-stimulated acid secretion, in vivo)
Conditions: anesthetized female CD rat, pentagastrin 1 μg/kg i.v. infusion, dose 3 μmol/kg i.d. (intraduodenal)
Text: Testing of the secretion-inhibiting action on the perfused rat stomach
In Table A which follows, the influence of the compounds according to the invention on the pentagastrin-stimulated acid secretion of the perfused rat stomach after intraduodenal administration in vivo is shown.
The abdomen of anesthetized rats (CD rat, female, 200-250 g; 1.5 g/kg i.m. urethane) was opened after tracheotomy by a median upper abdominal incision and a PVC catheter was fixed transorally in the esophagus and another via the pylorus such that the ends of the tube just projected into the gastric lumen. The catheter leading from the pylorus led outward into the right abdominal wall through a side opening.
After thorough rinsing (about 50-100 ml), warm (37° C.) physiological NaCl solution was continuously passed through the stomach (0.5 ml/min, pH 6.8-6.9; Braun-Unita I). The pH (pH meter 632, glass electrode EA 147; φ=5 mm, Metrohm) and, by titration with a freshly prepared 0.01 N NaOH solution to pH 7 (Dosimat 665 Metrohm), the secreted HCl were determined in the effluent in each case collected at an interval of 15 minutes.
The gastric secretion was stimulated by continuous infusion of […] (=1.65 ml/h) of i.v. pentagastrin (left femoral vein) about 30 min after the end of the operation (i.e. after determination of 2 preliminary fractions). […]

| Structure (SMILES) | Inhibition of acid secretion [%] |
| --- | --- |
| Cc1nc2c3c(ccn2c1C)[C@@H](N1CCOCC1)[C@@H](O)CN3 [Example 9, (7R,8S,9R)-8-Hydroxy-2,3-dimethyl-7-(4-morphollno)-7,8,9,10-tetrahydroimidazo[1.2-h]-[1.7]naphthyridine] | 44 |
| Cc1nc2c3c(ccn2c1C)[C@@H](N(C)C)[C@@H](O)CN3 [Example 19, (7R,8S,9R)-8-Hydroxy-7-(dimethylamino)-2,3-dimethyl-7,8,9,10-tetrahydroimidazo[1.2-h]-[1.7]naphthyridine] | 64 |
